Test results published in patent US20150141351A1, “Solid Pharmaceutical Compositions” (AbbVie Deutschland GmbH & Co. KG, priority 2013, published 2015).

Test: drug substance degradation on hot melt extrusion
Format: physicochemical
Settings: hot melt extrusion at a temperature of 165° C.
Description: Compound 1, Compound 2 and ritonavir were extruded using melt-extrusion. 31 g of copovidone, 3.5 g of vitamin E TPGS and 1.0 g of propylene glycol monolaurate were granulated for 2 minutes in a mill. After two hours, the mixture was blended with 5.09 g of ritonavir, 1.27 g of Compound 2, 7.64 g of Compound 1 and 0.5 g colloidal silica for 2 minutes in a blender and subsequently sieved over a 1.0 mm mesh sieve. The mixture was extruded on a Haake/Thermo Fisher extruder at 165° C. at a screw speed of 30 rpm. The extrudate thus prepared contained 15% Compound 1, 10% ritonavir, 2.5% Compound 2, 62% copovidone, 1% colloidal silica (areosil 200), 7% vitamin E TPGS, and 2% propylene glycol monolaurate.
The tablet was also tested for stability. […] The degradation of each drug substance after melt extrusion was within the specifications.

ritonavir degradation when co-extruded with Compound 1 and Compound 2: well within the acceptable levels
Compound: CC(C)c1nc(CN(C)C(=O)N[C@H](C(=O)N[C@@H](Cc2ccccc2)C[C@H](O)[C@H](Cc2ccccc2)NC(=O)OCc2cncs2)C(C)C)cs1 [ritonavir]
